What all share (format): cell-based
One experiment concerns He. In words: Anticancer MTT viability assay, He cells. The conditions noted are these: He cancer cell line, 48 hours incubation, 0-100 μM. In general terms: Tetrazolium assays rely on reduction of a dye to a coloured formazan, in cell work by metabolically active cells.
A further experiment relates to MC. In words: Anticancer MTT viability assay, MC cells. Conditions: MC cancer cell line, 48 hours incubation, 0-100 μM.
Another experiment deals with Jurk. Put plainly: Anticancer MTT viability assay, Jurk cells. The conditions noted are these: Jurk cancer cell line, 48 hours incubation, 0-100 μM.
The next experiment has as its system C. albicans. In words: Antimicrobial MTT viability assay, C. albicans. The conditions noted are these: 0-100 μM.
In another experiment the test system is T. cruzi (ATCC 30013). Put plainly: T. cruzi viability assay by microscopy. Conditions: 100 μM frankiamicin A, eight days.
The next experiment relates to S. pyogenes. Put plainly: Antimicrobial MTT viability assay, S. pyogenes.
Another experiment concerns A. baumanii. Put plainly: Antimicrobial MTT viability assay, A. baumanii.
In the next experiment the test system is P. aeruginosa. Put plainly: Antimicrobial MTT viability assay, P. aeruginosa.
Another experiment relates to Y. pestis.
The subject of a further experiment is S. aureus. Put plainly: Antimicrobial MTT viability assay, S. aureus. The conditions noted are these: for MIC: S. aureus. Here is the method:
Antimicrobial and anticancer assays were conducted by quantifying viability of cells exposed to frankiamicin A (2-fold serial diluted in DMSO) at concentrations ranging from 0-100 μM using an MTT assay (Frolova et al., 2013, J Med Chem 56:6886-6900). For antimicrobial assays, a liquid culture of each test strain was grown overnight at 37° C. in TSB media in a rotary incubator. The resulting culture was diluted 1:100 into fresh media and 100 μL aliquots were transferred to a 96-well plate. Serial diluted compound was added to individual wells and cells were incubated at 37° C. for either 6 hours or 18 hours prior to MTT assay. Anticancer assays were conducted using approximately 4000 cells incubated overnight at 37° C. in 100 μL DMEM media supplemented with 10% FBS, adding serial diluted compound, and incubating for 48 hours prior to MTT assay. Assays of T. cruzi (ATCC 30013) were conducted by growing cells unshaken at 25° C. in ATCC Medium 1029 (LIT Medium) for five days, diluting 1:10 into fresh media, adding 100 μM frankiamicin A, incubating for an additional eight days, and assessing cell viability by microscopy using an untreated control for comparison.

Experiment [1] relates to methicillin-resistant S. aureus (MRSA). In words: Antimicrobial MTT viability assay, MRSA. Conditions: for MIC: MRS(A).

Like-named read-outs stand apart in the source and are kept apart here.

The source of these data is patent US10010558B2, “Frankiamicin A compositions and methods” (STC.UNM, priority 2015, dated 2018).

The term IC50 denotes the midpoint of a concentration-inhibition curve. Higher therefore signals weaker potency. One may read the MIC as the lowest concentration found to suppress growth. Read a high MIC as weaker potency.

As to frankiamicin A, the IC50 with He, with MC, with Jurk, with C. albicans and with T. cruzi (ATCC 30013) was over 1000 nM in each case. The MIC against S. pyogenes (assessed after 6 h incubation), against S. pyogenes (assessed after 18 h incubation), with A. baumanii (assessed after 6 h incubation), in the experiment on A. baumanii (assessed after 18 h incubation), against P. aeruginosa (assessed after 6 h incubation) and against P. aeruginosa (assessed after 18 h incubation) was over 1 µM throughout. Moreover, the MIC against Y. pestis (assessed after 6 h incubation) was over 1 µM; against Y. pestis (assessed after 18 h incubation) it was over 1 µM; against S. aureus (assessed after 6 h incubation), about 1 µM; with S. aureus (assessed after 18 h incubation), over 1 µM; in [1] (assessed after 6 h incubation), “~”; in experiment [1] (assessed after 18 h incubation), over 1 µM. Further, the antimicrobial activity entry (in the experiment on S. aureus (wild-type S. aureus); in [1] (methicillin-resistant S. aureus (MRSA))) was “detectable antimicrobial activity” throughout.
